From the kinase profiling compilation of Christmann-Franck et al. (2016)

What was measured:
CAMKK2 (human) = CAMKK2 (human) (UniProt Q96RR4); assay: radiometric filter-binding kinase assay
MAPK1 (human) = MAPK1 (human) (UniProt P28482); assay: radiometric filter-binding kinase assay
PRKACA (human) = PRKACA (human) (UniProt P17612); assay: radiometric filter-binding kinase assay
ROCK2 (rat) = assay: radiometric filter-binding kinase assay; details: accession and sequence are those of the human protein
[1] = molecular target: STK11 CAB39 STRADA (human) (UniProt Q9Y376+Q7RTN6+Q15831); assay: radiometric filter-binding kinase assay
BMX (human) = BMX (human) (UniProt P51813); assay: KINOMEscan competition binding; details: compound 10.0 µM
CAMK1D (human) = CAMK1D (human) (UniProt Q8IU85); assay: KINOMEscan competition binding; details: compound 10.0 µM
CDK18 (human) = CDK18 (human) (UniProt Q07002); assay: KINOMEscan competition binding; details: compound 10.0 µM
CDK19 (human) = CDK19 (human) (UniProt Q9BWU1); assay: KINOMEscan competition binding; details: compound 10.0 µM
CDK2 (human) = CDK2 (human) (UniProt P24941); assay: KINOMEscan competition binding; details: compound 10.0 µM
CDK7 (human) = CDK7 (human) (UniProt P50613); assay: KINOMEscan competition binding; details: compound 10.0 µM
CDK9 (human) = CDK9 (human) (UniProt P50750); assay: KINOMEscan competition binding; details: compound 10.0 µM
CIT (human) = CIT (human) (UniProt O14578); assay: KINOMEscan competition binding; details: compound 10.0 µM
DDR2 (human) = DDR2 (human) (UniProt Q16832); assay: KINOMEscan competition binding; details: compound 10.0 µM
[2] = system: EGFR (human), P00533 [747-751 del / S ins]; assay: KINOMEscan competition binding; details: compound 10.0 µM
EPHA4 (human) = EPHA4 (human) (UniProt P54764); assay: KINOMEscan competition binding; details: compound 10.0 µM
ERBB4 (human) = ERBB4 (human) (UniProt Q15303); assay: KINOMEscan competition binding; details: compound 10.0 µM
FLT1 (human) = FLT1 (human) (UniProt P17948); assay: KINOMEscan competition binding; details: compound 10.0 µM
[3] = system: FLT3 (human), P36888 [ITD]; assay: KINOMEscan competition binding; details: compound 10.0 µM
FLT4 (human) = FLT4 (human) (UniProt P35916); assay: KINOMEscan competition binding; details: compound 10.0 µM
GAK (human) = GAK (human) (UniProt O14976); assay: KINOMEscan competition binding; details: compound 10.0 µM
IKBKB (human) = IKBKB (human) (UniProt O14920); assay: KINOMEscan competition binding; details: compound 10.0 µM
LCK (human) = LCK (human) (UniProt P06239); assay: KINOMEscan competition binding; details: compound 10.0 µM
MAP4K4 (human) = MAP4K4 (human) (UniProt O95819); assay: KINOMEscan competition binding; details: compound 10.0 µM
MAPK10 (human) = MAPK10 (human) (UniProt P53779); assay: KINOMEscan competition binding; details: compound 10.0 µM
MAPK9 (human) = MAPK9 (human) (UniProt P45984); assay: KINOMEscan competition binding; details: compound 10.0 µM
MLTK (human) = MLTK (human) (UniProt Q9NYL2); assay: KINOMEscan competition binding; details: compound 10.0 µM
PRKCE (human) = PRKCE (human) (UniProt Q02156); assay: KINOMEscan competition binding; details: compound 10.0 µM
[4] = system: RET (human), P07949 [M918T]; assay: KINOMEscan competition binding; details: compound 10.0 µM
[5] = system: RET (human), P07949 [V804M]; assay: KINOMEscan competition binding; details: compound 10.0 µM
RPS6KA5 KD1 (human) = RPS6KA5 KD1 (human) (UniProt O75582); assay: KINOMEscan competition binding; details: compound 10.0 µM
SLK (human) = SLK (human) (UniProt Q9H2G2); assay: KINOMEscan competition binding; details: compound 10.0 µM
STK35 (human) = STK35 (human) (UniProt Q8TDR2); assay: KINOMEscan competition binding; details: compound 10.0 µM
STK36 (human) = STK36 (human) (UniProt Q9NRP7); assay: KINOMEscan competition binding; details: compound 10.0 µM
STK38L (human) = STK38L (human) (UniProt Q9Y2H1); assay: KINOMEscan competition binding; details: compound 10.0 µM
TEK (human) = TEK (human) (UniProt Q02763); assay: KINOMEscan competition binding; details: compound 10.0 µM
TNIK (human) = TNIK (human) (UniProt Q9UKE5); assay: KINOMEscan competition binding; details: compound 10.0 µM
YES1 (human) = YES1 (human) (UniProt P07947); assay: KINOMEscan competition binding; details: compound 10.0 µM

Chain of STK11 CAB39 STRADA (human) (Q15831 whole entry, looked up): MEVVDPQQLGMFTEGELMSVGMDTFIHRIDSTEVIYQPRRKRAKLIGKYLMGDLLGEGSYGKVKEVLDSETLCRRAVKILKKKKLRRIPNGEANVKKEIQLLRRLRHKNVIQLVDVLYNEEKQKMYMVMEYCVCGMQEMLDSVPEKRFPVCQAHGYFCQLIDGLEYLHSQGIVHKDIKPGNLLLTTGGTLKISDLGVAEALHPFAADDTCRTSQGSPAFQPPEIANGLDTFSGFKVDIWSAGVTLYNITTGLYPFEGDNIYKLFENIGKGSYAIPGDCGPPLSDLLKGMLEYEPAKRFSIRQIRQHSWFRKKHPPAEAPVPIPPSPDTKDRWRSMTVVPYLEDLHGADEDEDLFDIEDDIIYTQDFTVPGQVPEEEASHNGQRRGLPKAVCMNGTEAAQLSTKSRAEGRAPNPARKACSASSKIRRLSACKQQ
Chain of STK11 CAB39 STRADA (human) (Q7RTN6 whole entry, looked up): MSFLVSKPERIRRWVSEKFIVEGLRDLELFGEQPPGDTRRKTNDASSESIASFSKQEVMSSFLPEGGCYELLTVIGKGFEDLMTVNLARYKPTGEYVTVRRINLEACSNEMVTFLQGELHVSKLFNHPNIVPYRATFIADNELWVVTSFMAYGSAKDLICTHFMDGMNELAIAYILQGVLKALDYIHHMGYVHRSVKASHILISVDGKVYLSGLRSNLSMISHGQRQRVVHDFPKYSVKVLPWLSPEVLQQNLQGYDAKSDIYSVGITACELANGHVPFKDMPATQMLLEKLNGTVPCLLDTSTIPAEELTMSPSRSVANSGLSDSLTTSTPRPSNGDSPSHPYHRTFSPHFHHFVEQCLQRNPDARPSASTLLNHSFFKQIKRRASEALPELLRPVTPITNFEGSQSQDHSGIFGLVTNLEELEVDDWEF
Chain of STK11 CAB39 STRADA (human) (Q9Y376 whole entry, looked up): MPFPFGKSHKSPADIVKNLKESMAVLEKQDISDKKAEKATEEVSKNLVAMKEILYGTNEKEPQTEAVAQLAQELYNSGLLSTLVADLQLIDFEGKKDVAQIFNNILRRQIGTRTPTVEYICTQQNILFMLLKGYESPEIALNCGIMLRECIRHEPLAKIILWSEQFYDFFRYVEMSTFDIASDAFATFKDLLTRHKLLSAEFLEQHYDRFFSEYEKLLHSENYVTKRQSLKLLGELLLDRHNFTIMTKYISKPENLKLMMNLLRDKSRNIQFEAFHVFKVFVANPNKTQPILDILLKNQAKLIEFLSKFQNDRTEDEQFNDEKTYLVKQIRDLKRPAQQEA
Chain of MAPK1 (human) (P28482 whole entry, looked up): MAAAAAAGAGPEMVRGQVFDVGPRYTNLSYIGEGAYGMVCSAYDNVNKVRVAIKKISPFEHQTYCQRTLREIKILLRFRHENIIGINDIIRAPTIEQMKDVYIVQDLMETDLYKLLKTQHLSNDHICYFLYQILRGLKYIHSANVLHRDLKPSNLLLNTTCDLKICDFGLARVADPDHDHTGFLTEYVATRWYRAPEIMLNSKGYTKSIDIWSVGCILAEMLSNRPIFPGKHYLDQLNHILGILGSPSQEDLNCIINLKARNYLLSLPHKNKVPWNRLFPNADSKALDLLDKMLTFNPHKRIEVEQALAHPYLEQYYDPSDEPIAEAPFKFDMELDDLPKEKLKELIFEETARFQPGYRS
Chain of CAMKK2 (human) (Q96RR4 whole entry, looked up): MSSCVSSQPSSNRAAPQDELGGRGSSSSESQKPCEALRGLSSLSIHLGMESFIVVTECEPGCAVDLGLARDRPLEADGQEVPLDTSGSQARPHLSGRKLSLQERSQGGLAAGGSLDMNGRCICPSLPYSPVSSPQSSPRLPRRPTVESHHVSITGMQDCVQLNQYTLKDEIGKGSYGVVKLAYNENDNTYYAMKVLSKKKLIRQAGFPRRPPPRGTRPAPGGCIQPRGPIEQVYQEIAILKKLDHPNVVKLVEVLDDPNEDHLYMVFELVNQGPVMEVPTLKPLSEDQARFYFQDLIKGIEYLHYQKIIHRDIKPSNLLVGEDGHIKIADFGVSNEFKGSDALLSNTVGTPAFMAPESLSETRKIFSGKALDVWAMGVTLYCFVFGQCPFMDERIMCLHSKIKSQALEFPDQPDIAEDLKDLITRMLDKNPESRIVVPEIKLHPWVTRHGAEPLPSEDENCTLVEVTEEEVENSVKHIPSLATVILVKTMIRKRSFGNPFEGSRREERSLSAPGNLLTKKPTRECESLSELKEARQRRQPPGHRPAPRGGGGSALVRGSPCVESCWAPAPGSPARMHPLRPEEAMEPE
Chain of RPS6KA5 KD1 (human) (O75582 whole entry, looked up): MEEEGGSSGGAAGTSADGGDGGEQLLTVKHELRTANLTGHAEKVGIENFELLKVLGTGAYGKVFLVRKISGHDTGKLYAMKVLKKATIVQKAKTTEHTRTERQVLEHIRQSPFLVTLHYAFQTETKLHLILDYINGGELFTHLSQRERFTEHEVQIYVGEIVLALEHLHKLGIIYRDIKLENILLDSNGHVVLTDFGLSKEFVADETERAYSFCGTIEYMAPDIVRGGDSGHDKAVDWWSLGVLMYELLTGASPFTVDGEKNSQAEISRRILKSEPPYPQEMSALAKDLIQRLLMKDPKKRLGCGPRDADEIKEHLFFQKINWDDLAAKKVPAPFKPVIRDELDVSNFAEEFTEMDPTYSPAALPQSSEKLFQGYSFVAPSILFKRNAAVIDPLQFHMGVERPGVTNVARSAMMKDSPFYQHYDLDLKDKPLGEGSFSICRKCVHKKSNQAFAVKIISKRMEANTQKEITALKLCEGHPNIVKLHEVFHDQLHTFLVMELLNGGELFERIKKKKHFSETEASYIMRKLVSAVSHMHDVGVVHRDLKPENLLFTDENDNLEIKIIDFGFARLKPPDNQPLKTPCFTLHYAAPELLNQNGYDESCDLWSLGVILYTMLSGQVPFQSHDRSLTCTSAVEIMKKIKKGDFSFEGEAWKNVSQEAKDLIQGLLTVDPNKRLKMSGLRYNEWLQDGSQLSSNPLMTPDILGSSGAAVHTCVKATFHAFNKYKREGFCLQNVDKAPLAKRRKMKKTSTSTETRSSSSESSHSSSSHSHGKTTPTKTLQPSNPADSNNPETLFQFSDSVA
Chain of FLT4 (human) (P35916 whole entry, looked up): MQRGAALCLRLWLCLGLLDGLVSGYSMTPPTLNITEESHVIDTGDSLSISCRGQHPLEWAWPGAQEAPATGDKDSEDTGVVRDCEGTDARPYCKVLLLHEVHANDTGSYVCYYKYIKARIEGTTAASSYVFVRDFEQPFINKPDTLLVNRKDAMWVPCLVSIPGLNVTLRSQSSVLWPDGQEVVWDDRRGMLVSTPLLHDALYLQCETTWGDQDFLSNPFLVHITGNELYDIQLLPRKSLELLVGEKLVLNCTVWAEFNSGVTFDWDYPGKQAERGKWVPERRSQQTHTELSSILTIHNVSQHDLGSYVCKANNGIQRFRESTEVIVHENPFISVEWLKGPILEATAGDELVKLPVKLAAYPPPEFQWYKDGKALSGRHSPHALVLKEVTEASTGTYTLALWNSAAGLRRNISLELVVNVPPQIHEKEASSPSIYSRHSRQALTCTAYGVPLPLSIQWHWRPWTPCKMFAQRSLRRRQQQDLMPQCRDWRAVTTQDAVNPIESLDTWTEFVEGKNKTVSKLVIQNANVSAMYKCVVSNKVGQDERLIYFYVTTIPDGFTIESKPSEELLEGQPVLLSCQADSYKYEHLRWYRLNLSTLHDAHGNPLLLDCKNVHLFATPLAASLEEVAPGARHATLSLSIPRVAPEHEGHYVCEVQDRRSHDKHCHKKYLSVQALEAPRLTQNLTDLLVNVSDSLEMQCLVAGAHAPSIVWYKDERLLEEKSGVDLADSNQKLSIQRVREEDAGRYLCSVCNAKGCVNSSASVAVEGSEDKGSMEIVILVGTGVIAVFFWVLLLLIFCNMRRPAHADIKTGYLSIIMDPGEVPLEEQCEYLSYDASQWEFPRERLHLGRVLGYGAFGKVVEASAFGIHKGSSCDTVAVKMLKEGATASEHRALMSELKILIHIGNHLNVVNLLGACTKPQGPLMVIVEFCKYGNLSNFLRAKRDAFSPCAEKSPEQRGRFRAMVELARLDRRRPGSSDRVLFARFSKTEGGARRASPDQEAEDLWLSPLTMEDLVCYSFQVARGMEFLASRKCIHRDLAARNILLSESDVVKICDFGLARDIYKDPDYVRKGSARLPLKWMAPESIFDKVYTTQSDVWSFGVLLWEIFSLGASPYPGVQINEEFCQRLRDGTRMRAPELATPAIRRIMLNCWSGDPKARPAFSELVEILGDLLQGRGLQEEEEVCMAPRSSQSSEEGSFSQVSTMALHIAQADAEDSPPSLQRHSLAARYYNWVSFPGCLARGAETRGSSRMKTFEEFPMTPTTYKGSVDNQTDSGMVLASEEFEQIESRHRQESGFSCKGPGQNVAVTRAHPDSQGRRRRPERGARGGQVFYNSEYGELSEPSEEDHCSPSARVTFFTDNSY
Chain of BMX (human) (P51813 whole entry, looked up): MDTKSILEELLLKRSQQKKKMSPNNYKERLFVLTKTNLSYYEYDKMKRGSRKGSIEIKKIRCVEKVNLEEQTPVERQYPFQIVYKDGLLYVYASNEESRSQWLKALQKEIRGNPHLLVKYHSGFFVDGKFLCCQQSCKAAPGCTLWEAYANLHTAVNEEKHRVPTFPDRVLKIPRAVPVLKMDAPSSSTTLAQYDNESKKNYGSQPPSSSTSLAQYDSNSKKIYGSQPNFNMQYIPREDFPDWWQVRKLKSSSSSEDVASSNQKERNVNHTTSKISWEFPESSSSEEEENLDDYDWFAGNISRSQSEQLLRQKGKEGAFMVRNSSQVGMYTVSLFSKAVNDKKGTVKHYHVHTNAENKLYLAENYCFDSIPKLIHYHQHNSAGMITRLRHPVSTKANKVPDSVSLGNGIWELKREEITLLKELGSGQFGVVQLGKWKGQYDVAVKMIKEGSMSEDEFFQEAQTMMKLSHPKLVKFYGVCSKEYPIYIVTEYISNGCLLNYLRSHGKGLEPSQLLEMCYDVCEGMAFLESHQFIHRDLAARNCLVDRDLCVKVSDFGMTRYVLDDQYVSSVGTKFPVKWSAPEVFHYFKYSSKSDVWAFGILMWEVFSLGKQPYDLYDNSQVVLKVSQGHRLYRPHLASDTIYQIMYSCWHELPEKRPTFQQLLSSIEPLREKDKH

## CCN1CCN(Cc2ccc(NC(=O)c3ccc(C)c(Oc4ccnc5[nH]ccc45)c3)cc2C(F)(F)F)CC1
CAMKK2 (human); compound 0.1 µM
  residual activity: 98.3%
CAMKK2 (human); compound 1.0 µM
  residual activity: 70.7%
CAMKK2 (human); compound 10.0 µM
  residual activity: 20.7%
MAPK1 (human); compound 0.1 µM
  residual activity: 101%
MAPK1 (human); compound 1.0 µM
  residual activity: 102%
MAPK1 (human); compound 10.0 µM
  residual activity: 106%
PRKACA (human); compound 0.1 µM
  residual activity: 100%
PRKACA (human); compound 1.0 µM
  residual activity: 93.4%
PRKACA (human); compound 10.0 µM
  residual activity: 76.2%
ROCK2 (rat); compound 0.1 µM
  residual activity: 91.7%
ROCK2 (rat); compound 1.0 µM
  residual activity: 71.2%
ROCK2 (rat); compound 10.0 µM
  residual activity: 25.5%
[1]; compound 0.1 µM
  residual activity: 117%
[1]; compound 1.0 µM
  residual activity: 107%
[1]; compound 10.0 µM
  residual activity: 129%
BMX (human)
  kinase still bound, per cent of control: 2.4%
CAMK1D (human)
  kinase still bound, per cent of control: 6.2%
CDK18 (human)
  residual activity: 1.8%
CDK19 (human)
  residual activity: 0.1%
CDK2 (human)
  residual activity: 11%
CDK7 (human)
  residual activity: 2.4%
CDK9 (human)
  residual activity: 5.8%
CIT (human)
  kinase still bound, per cent of control: 0.1%
DDR2 (human)
  kinase still bound, per cent of control: 5.1%
[2]
  kinase still bound, per cent of control: 1.1%
EPHA4 (human)
  kinase still bound, per cent of control: 5.8%
ERBB4 (human)
  kinase still bound, per cent of control: 28%
FLT1 (human)
  kinase still bound, per cent of control: 1.6%
[3]
  kinase still bound, per cent of control: 0.7%
FLT4 (human)
  kinase still bound, per cent of control: 0.2%
GAK (human)
  kinase still bound, per cent of control: 31%
IKBKB (human)
  kinase still bound, per cent of control: 24%
LCK (human)
  kinase still bound, per cent of control: 0.8%
MAP4K4 (human)
  kinase still bound, per cent of control: 0%
MAPK10 (human)
  kinase still bound, per cent of control: 12%
MAPK9 (human)
  kinase still bound, per cent of control: 0%
MLTK (human)
  kinase still bound, per cent of control: 0.35%
PRKCE (human)
  kinase still bound, per cent of control: 20%
[4]
  kinase still bound, per cent of control: 0%
[5]
  kinase still bound, per cent of control: 1%
RPS6KA5 KD1 (human)
  kinase still bound, per cent of control: 4.7%
SLK (human)
  kinase still bound, per cent of control: 2%
STK35 (human)
  kinase still bound, per cent of control: 3%
STK36 (human)
  kinase still bound, per cent of control: 0.2%
STK38L (human)
  kinase still bound, per cent of control: 6.8%
TEK (human)
  kinase still bound, per cent of control: 0%
TNIK (human)
  kinase still bound, per cent of control: 8.2%
YES1 (human)
  kinase still bound, per cent of control: 1.6%
